{
  "source": "paper PMC6628920",
  "about": "(Chemico-biological interactions, 2018)",
  "key": {"MRP4": {"molecular_target": "T1, MRP4 (Homo sapiens, UniProt O15439)", "T1 sequence (O15439 1-1325)": "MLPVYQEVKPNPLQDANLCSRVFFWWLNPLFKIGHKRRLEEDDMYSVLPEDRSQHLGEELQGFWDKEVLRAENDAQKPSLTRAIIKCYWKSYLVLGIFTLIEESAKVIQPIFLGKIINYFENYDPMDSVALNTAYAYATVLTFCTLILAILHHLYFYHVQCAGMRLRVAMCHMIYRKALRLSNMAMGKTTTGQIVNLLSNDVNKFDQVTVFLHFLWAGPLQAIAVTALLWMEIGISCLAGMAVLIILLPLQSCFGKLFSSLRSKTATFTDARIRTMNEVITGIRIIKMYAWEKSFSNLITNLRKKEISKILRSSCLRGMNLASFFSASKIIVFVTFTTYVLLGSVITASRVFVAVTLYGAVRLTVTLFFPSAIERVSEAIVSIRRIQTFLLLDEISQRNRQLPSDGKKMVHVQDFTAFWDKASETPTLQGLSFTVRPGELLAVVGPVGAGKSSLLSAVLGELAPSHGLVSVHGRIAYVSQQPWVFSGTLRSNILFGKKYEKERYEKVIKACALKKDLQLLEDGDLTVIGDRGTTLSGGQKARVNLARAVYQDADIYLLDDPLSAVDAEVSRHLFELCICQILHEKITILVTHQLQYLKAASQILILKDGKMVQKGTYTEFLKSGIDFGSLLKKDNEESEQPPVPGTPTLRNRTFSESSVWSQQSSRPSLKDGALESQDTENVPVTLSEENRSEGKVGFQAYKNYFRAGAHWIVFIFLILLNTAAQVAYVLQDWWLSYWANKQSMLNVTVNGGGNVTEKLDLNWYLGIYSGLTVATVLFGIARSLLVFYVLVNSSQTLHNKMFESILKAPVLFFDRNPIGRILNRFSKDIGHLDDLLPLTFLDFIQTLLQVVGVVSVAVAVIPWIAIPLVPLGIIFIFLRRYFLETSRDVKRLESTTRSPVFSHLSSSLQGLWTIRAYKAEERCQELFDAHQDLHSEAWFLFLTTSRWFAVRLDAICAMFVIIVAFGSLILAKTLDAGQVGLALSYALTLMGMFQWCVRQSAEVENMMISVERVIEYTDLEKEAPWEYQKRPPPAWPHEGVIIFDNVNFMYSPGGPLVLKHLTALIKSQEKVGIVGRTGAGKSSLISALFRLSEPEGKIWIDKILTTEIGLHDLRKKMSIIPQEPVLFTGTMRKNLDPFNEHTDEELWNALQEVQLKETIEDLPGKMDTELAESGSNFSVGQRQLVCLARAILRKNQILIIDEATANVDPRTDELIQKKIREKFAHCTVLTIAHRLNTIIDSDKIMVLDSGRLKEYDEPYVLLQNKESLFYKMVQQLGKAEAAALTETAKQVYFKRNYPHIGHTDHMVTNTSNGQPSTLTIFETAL", "type": "in vitro ADME"}, "MRP1": {"molecular_target": "MRP1 (Homo sapiens, UniProt P33527)", "sequence (P33527 whole entry)": "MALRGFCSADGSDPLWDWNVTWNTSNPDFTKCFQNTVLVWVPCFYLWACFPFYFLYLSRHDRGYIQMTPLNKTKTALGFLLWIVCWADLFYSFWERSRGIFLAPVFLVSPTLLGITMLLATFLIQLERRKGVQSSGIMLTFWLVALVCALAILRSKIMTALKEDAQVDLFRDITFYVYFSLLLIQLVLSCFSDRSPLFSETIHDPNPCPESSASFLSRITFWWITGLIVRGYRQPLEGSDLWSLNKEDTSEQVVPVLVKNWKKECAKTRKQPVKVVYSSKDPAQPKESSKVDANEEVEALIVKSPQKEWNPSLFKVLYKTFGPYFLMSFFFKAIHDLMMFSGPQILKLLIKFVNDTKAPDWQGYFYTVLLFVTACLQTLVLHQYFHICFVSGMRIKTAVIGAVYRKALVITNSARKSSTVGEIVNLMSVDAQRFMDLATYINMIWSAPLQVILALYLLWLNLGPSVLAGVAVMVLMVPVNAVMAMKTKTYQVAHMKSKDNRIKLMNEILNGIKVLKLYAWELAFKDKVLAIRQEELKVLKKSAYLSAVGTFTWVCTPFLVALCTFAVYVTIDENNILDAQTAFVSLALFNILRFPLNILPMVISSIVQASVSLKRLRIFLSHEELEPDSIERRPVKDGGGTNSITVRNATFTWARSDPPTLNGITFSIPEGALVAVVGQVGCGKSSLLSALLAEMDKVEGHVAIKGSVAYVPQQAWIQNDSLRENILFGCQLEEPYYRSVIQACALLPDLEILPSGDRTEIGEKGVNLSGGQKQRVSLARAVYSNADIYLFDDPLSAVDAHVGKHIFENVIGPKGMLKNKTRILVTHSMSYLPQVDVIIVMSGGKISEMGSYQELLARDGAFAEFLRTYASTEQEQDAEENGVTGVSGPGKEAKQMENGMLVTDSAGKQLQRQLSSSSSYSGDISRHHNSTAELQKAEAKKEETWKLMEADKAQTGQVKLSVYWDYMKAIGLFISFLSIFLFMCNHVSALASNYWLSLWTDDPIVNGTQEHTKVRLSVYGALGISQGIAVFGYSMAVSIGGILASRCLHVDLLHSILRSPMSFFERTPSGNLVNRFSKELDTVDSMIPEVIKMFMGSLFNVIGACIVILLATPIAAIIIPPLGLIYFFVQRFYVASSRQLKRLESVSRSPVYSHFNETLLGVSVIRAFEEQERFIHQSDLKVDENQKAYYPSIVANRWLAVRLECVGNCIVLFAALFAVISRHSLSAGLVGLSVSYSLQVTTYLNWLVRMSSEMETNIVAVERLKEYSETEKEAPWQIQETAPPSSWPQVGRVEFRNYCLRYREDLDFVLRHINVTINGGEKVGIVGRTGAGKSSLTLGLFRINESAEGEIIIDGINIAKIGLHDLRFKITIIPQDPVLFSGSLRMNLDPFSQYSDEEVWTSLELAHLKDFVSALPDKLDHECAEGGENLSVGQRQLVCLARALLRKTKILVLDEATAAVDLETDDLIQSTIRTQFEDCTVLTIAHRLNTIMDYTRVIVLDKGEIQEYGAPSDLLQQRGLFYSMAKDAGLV", "type": "in vitro ADME"}, "recombinant UGT1A1 [1]": {"molecular_target": "T2, recombinant UGT1A1 (Homo sapiens, UniProt P22309)", "T2 sequence (P22309 26-533)": "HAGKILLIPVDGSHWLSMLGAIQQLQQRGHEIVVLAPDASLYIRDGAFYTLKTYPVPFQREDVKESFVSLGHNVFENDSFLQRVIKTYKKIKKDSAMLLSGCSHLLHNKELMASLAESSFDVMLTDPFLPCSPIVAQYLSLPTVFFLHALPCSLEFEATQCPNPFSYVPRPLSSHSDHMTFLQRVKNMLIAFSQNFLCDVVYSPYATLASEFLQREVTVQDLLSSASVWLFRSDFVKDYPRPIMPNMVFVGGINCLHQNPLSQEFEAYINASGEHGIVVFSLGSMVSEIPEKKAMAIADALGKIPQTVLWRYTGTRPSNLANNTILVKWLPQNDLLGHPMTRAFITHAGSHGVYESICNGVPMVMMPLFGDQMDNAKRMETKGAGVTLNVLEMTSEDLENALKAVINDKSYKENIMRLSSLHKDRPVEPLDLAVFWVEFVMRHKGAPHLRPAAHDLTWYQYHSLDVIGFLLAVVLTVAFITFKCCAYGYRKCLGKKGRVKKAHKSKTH", "experiment": "Chemical inhibition of cycloicaritin-3-O-glucuronidation by recombinant UGT1A1", "type": "biochemical", "conditions": "cycloicaritin 8 μM"}, "HeLa1A1 cell lysate [2]": {"molecular_target": "T3, HeLa1A1 cell lysate (Homo sapiens, UniProt P22309)", "T3 sequence (P22309 26-533)": "T2 sequence (P22309 26-533)", "experiment": "Chemical inhibition of cycloicaritin-3-O-glucuronidation by HeLa1A1 cell lysate", "type": "biochemical", "conditions": "cycloicaritin 8 μM"}, "MRPs": {"tested_on": "MRPs", "experiment": "Effects of MRPs inhibitors on excretion of CICT-3-G in HeLa1A1 cells", "type": "cell-based, human", "conditions": "inhibitor 0.05 and 0.2 μM, cycloicaritin 8 μM"}, "[3]": {"experiment": "Metabolite formation from cycloicaritin by wild-type HeLa cell lysate", "type": "in vitro ADME, human", "conditions": "cycloicaritin 8 μM, 2 h"}, "HeLa1A1 cell lysate [4]": {"molecular_target": "T3, HeLa1A1 cell lysate", "experiment": "Kinetics of cycloicaritin-3-O-glucuronidation by HeLa1A1 cell lysate", "type": "in vitro ADME", "conditions": "Hill equation"}, "recombinant UGT1A1 [5]": {"molecular_target": "T2, recombinant UGT1A1", "experiment": "Kinetics of cycloicaritin-3-O-glucuronidation by recombinant UGT1A1", "type": "in vitro ADME", "conditions": "Hill equation"}, "[6]": {"conditions": "cited from earlier work"}, "[7]": {"conditions": "cited from earlier work", "remark": "listed apart in the source"}},
  "data": [
    {"compound": "COc1ccc(-c2oc3c4c(cc(O)c3c(=O)c2O[C@@H]2O[C@H](C(=O)O)[C@@H](O)[C@H](O)[C@H]2O)OC(C)(C)CC4)cc1", "note": "[CICT-3-G, cycloicaritin-3-O-glucuronide]", "values": [
      {"measurement": "decrease in the efflux clearance of CICT-3-G", "setting": "MRP4", "value": 28.7, "unit": "%"},
      {"measurement": "decrease of the efflux clearance of CICT-3-G", "setting": "MRP1", "value": 52.0, "unit": "%"}
    ]},
    {"compound": "COc1ccc2c3c([nH]c2c1)[C@H](CC(C)C)N1C(=O)[C@H](CCC(=O)OC(C)(C)C)NC(=O)[C@@H]1C3", "note": "[Ko143]", "values": [
      {"measurement": "remaining cycloicaritin-3-O-glucuronidation activity, % of the control values", "setting": "recombinant UGT1A1 [1]; inhibitor 20 μM", "value": 12.5, "unit": "%"},
      {"measurement": "remaining cycloicaritin-3-O-glucuronidation activity, % of the control values", "setting": "HeLa1A1 cell lysate [2]; inhibitor 20 μM", "value": 8.8, "unit": "%"}
    ]},
    {"compound": "CCCCC/C=C\\C\\C=C/C=C/C=C/[C@@H](SC[C@H](NC(=O)CC[C@H](N)C(=O)O)C(=O)NCC(=O)O)[C@@H](O)CCCC(=O)O", "note": "[LTC4, leukotriene C4]", "values": [
      {"measurement": "effect on CLapp value of CICT-3-G", "setting": "MRPs", "value": "no significant changes"},
      {"measurement": "effect on fmet value of CICT-3-G", "setting": "MRPs", "value": "no significant changes"},
      {"measurement": "effect on the intracellular level of CICT-3-G", "setting": "MRPs", "value": "did not alter"},
      {"measurement": "effect on the rate of efflux excretion of CICT-3-G", "setting": "MRPs", "value": "did not alter"},
      {"measurement": "effect on cycloicaritin-3-O-glucuronidation activity", "setting": "recombinant UGT1A1 [1]; inhibitor 0.05 and 0.2 μM", "value": "did not alter"},
      {"measurement": "effect on cycloicaritin-3-O-glucuronidation activity", "setting": "HeLa1A1 cell lysate [2]; inhibitor 0.05 and 0.2 μM", "value": "did not alter"}
    ]},
    {"compound": "COc1ccc(-c2oc3c4c(cc(O)c3c(=O)c2O)OC(C)(C)CC4)cc1", "note": "[cycloicaritin, Cycloicaritin]", "values": [
      {"measurement": "metabolites detected after incubation with cell lysate", "setting": "[3]", "value": "no metabolites were detected"},
      {"measurement": "CLmax of cycloicaritin-3-O-glucuronidation", "setting": "HeLa1A1 cell lysate [4]", "value": 17, "unit": "µL/min/mg"},
      {"measurement": "S50 of cycloicaritin-3-O-glucuronidation", "setting": "HeLa1A1 cell lysate [4]", "value": 1.19, "unit": "µM"},
      {"measurement": "n (Hill coefficient) of cycloicaritin-3-O-glucuronidation", "setting": "HeLa1A1 cell lysate [4]", "value": 1.71, "unit": "µM"},
      {"measurement": "Vmax of cycloicaritin-3-O-glucuronidation", "setting": "HeLa1A1 cell lysate [4]; cycloicaritin 0.1-10 μM", "value": 0.04, "unit": "nmol/min/mg"},
      {"measurement": "CLmax of cycloicaritin-3-O-glucuronidation", "setting": "recombinant UGT1A1 [5]", "value": 190, "unit": "µL/min/mg"},
      {"measurement": "S50 of cycloicaritin-3-O-glucuronidation", "setting": "recombinant UGT1A1 [5]", "value": 1.43, "unit": "µM"},
      {"measurement": "n (Hill coefficient) of cycloicaritin-3-O-glucuronidation", "setting": "recombinant UGT1A1 [5]", "value": 1.67, "unit": "µM"},
      {"measurement": "Vmax of cycloicaritin-3-O-glucuronidation", "setting": "recombinant UGT1A1 [5]; cycloicaritin 0.1-10 μM", "value": 0.54, "unit": "nmol/min/mg"}
    ]},
    {"compound": "COc1ccc(-c2oc3c(CC=C(C)C)c(O)cc(O)c3c(=O)c2O)cc1", "note": "[icaritin]", "values": [
      {"measurement": "CLint of glucuronidation in human liver", "setting": "[6]", "value": "> 350", "unit": "µL/min/mg"},
      {"measurement": "CLint of glucuronidation in human intestine", "setting": "[7]", "value": "> 180", "unit": "µL/min/mg"}
    ]},
    {"compound": "COc1ccc(-c2oc3c(CCC(C)(C)O)c(O)cc(O)c3c(=O)c2O)cc1", "note": "[wushanicaritin]", "values": [
      {"measurement": "CLint of glucuronidation in human liver", "setting": "[6]", "value": "> 350", "unit": "µL/min/mg"},
      {"measurement": "CLint of glucuronidation in human intestine", "setting": "[7]", "value": "> 180", "unit": "µL/min/mg"}
    ]}
  ]
}
